Data published in US7473688B2, “Indolobenzazepine HCV NS5B inhibitors” (Bristol-Myers Squibb Company, priority 2005, dated 2009).
pEC50, pIC50: −log10 of the molar value. Where two headings read alike, the source gives them in different places.

Tests used:
HCV replicon = HCV replicon FRET assay; assay type: cell-based; settings: Hepatitis C virus, FRET assay, read-out: EC50*
Excerpt: FRET Assay Preparation. To perform the HCV FRET screening assay, 96-well cell culture plates were used. The FRET peptide (Anaspec, Inc.) (Taliani et al., Anal. Biochem. 1996, 240, 60-67) contains a fluorescence donor, EDANS, near one end of the peptide and an acceptor, DABCYL, near the other end. The fluorescence of the peptide is quenched by […] resonance energy transfer (RET) between the donor and the acceptor, but as the NS3 protease cleaves the peptide the products are released from RET quenching and the fluorescence of the donor becomes apparent. The assay reagent was made as follows: 5× cell Luciferase cell culture lysis reagent from Promega (#E153A) diluted to 1× with dH2O, NaCl added to 150 mM final, the FRET peptide diluted to 20 uM final from a 2 mM stock.
To prepare plates, HCV replicon cells, with or without a Renilla luciferase reporter gene, were trypsinized and placed into each well of a 96-well plate with titrated test compounds added in columns 3 through 12; columns 1 and 2 contained a control compound (HCV protease inhibitor), and the bottom row contained cells without compound. The plates were then placed in a CO2 incubator at 37° C.
Assays. Subsequent to addition of the test compounds described above (FRET Assay Preparation), at various times the plate was removed and Alamar blue solution (Trek Diagnostics, #00-100) was added per well as a measure of cellular toxicity. After reading in a Cytoflour 4000 instrument (PE Biosystems), plates were rinsed with PBS and then used for FRET assay by the addition of 30 ul of the FRET peptide assay reagent described above (FRET Assay Preparation) per well. The plate was then placed into the Cytoflour 4000 instrument which had been set to 340 excite/490 emission, automatic mode for 20 cycles and the plate read in a kinetic mode. Typically, the signal to noise using an endpoint analysis after the reads was at least three-fold. Alternatively, after Alamar blue reading, plates were rinsed with PBS, 50 ul of DMEM (high glucose) without phenol red was added and plates were then used for luciferase assay using the Promega Dual-Glo Luciferase Assay System.
Compound analysis was determined by quantification of the relative HCV replicon inhibition and the relative cytotoxicity values. To calculate cytoxicity values, the average Alamar Blue fluorescence signals from the control wells were set as 100% non-toxic. The individual signals in each of the compound test wells were then divided by the average control signal and multiplied by 100% to determine […]. To calculate the HCV replicon inhibition values, an average background value was obtained from the two wells containing the highest amount of HCV protease inhibitor at the end of the assay period. These numbers were similar to those obtained from naïve Huh-7 cells.
The background numbers were then subtracted from the average signal obtained from the control wells and this number was used as 100% activity. The individual signals in each of the compound test wells were then divided by the averaged control values after background subtraction and multiplied by 100% to determine percent activity. EC50 values for a protease inhibitor titration were calculated as the concentration which caused a 50% reduction in FRET or luciferase activity. The two numbers generated for the compound plate, percent cytoxicity and percent activity were used to determine compounds of interest for further analysis.

HCV NS5B = molecular target: T1, HCV NS5B (Hepatitis C virus genotype 1b, UniProt Q9WMX2); test: HCV NS5B RdRp enzyme assay (preincubation protocol); assay type: biochemical
T1 construct: The protein was expressed with an 18 amino acid C-terminal truncation to enhance the solubility; made in house; host or cells: E. coli BL21 (DE3), pET21a
T1 sequence (Q9WMX2 2420-2992): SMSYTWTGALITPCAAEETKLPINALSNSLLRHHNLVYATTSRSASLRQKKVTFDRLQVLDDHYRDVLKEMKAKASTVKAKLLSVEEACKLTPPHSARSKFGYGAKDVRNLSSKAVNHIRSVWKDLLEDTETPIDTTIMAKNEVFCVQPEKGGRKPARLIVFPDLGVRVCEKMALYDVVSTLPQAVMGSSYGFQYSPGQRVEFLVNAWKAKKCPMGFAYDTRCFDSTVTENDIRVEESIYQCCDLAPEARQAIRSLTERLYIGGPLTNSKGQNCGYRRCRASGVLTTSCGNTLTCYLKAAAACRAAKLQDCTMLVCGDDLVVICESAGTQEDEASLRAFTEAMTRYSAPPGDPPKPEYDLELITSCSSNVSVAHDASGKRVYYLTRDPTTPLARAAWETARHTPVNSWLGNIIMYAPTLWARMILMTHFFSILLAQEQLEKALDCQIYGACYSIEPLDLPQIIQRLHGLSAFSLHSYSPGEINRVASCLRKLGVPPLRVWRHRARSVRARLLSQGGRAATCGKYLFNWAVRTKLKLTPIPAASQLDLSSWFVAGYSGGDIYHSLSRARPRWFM
Method in brief: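 C-terminally truncated (Δ18) genotype 1b NS5B from E. coli, 14 nM, added to compound, then polyA template (0.2 nM), 3H-UTP (0.29 μM) and oligo-dT12 primer precaptured on streptavidin SPA beads. 4 h at 30 °C, pH 7.5, 2% DMSO; SPA readout; IC50 from seven concentrations by logistic fit.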

Compound CN(C)S(=O)(=O)NC(=O)c1ccc2c(C3CCCCC3)c3n(c2c1)CC(C(=O)N1C[C@@H]2C[C@H]1CN2C(=O)OC(C)(C)C)=Cc1ccccc1-3 has a pEC50 (HCV replicon; Table 1) of 6.00 to 7.15 and a pIC50 (HCV NS5B; Table 1, read-out: IC50*) of 6.00 to 8.00.
COc1ccc2c(c1)C=C(C(=O)N1CCN(c3ncccn3)CC1)Cn1c-2c(C2CCCCC2)c2ccc(C(=O)NS(=O)(=O)N(C)C)cc21 showed a pEC50 (HCV replicon; Table 1b) of 6.00 to 7.52 and a pIC50 (HCV NS5B; Table 1b, read-out: IC50*) of over 7.70.
COc1ccc2c(c1)C[C@H](NC(=O)N(C)CC(=O)N(C)C)Cn1c-2c(C2CCCCC2)c2ccc(C(=O)NS(=O)(=O)N(C)C)cc21 gave a pEC50 (HCV replicon; Table 1b) of 6.00 to 7.52 and a pIC50 (HCV NS5B; Table 1b, read-out: IC50*) of 6.00 to 7.70.
In the case of COc1ccc2c(c1)C=C(C(=O)N(C)CC(=O)N(C)C)Cn1c-2c(C2CCCCC2)c2ccc(C(=O)NS(=O)(=O)N(C)C)cc21 [drawing 238], the pEC50 (HCV replicon; Table 1a) was 6.00 to 7.52 and the pIC50 (HCV NS5B; Table 1a, read-out: IC50*) was 6.00 to 8.00.
CN(C)S(=O)(=O)NC(=O)c1ccc2c(C3CCCCC3)c3n(c2c1)CC(NC(=O)N1CCOCC1)Cc1ccccc1-3 (stereo not drawn) [drawing 141] showed a pEC50 (HCV replicon; Table 1) of 6.00 to 7.15 and a pIC50 (HCV NS5B; Table 1, read-out: IC50*) of 6.00 to 8.00.
With COc1ccc2c(c1)CC(NC(=O)N1CCN(CC(=O)NC(C)C)CC1)Cn1c-2c(C2CCCCC2)c2ccc(C(=O)NS(=O)(=O)N(C)C)cc21 (stereo not drawn) the pEC50 (HCV replicon; Table 1a) was 6.00 to 7.52 and the pIC50 (HCV NS5B; Table 1a, read-out: IC50*) was 6.00 to 8.00.
With COC(=O)c1ccc2c(C3CCCCC3)c3n(c2c1)CC(NC(=O)N1CCOCC1)Cc1ccccc1-3 (stereo not drawn) the pEC50 (HCV replicon; Table 1) was under 6.92 and the pIC50 (HCV NS5B; Table 1, read-out: IC50*) was under 6.00.
CN(C)S(=O)(=O)NC(=O)c1ccc2c(C3CCCCC3)c3n(c2c1)CC(C(=O)N1CCN(CC(=O)N2CCOCC2)CC1)=Cc1ccccc1-3 was tested, and the pEC50 (HCV replicon; Table 1) was 6.00 to 7.15 and the pIC50 (HCV NS5B; Table 1, read-out: IC50*) was 6.00 to 8.00.
Compound COc1ccc2c(c1)C=C(C(=O)N(C)CC(=O)N(C)C)Cn1c-2c(C2CCCCC2)c2ccc(C(=O)O)cc21 has a pEC50 (HCV replicon; Table 1) of 6.00 to 7.15 and a pIC50 (HCV NS5B; Table 1, read-out: IC50*) of 6.00 to 8.00.
COCCN(CCOC)C(=O)C1=Cc2ccccc2-c2c(C3CCCCC3)c3ccc(C(=O)NS(=O)(=O)N(C)C)cc3n2C1 was tested, and the pEC50 (HCV replicon; Table 1) was 6.00 to 7.15 and the pIC50 (HCV NS5B; Table 1, read-out: IC50*) was 6.00 to 8.00.
CON(C)S(=O)(=O)NC(=O)c1ccc2c(C3CCCCC3)c3n(c2c1)CC(C(=O)N1CCOCC1)=Cc1ccccc1-3 [drawing 100] showed a pEC50 (HCV replicon; Table 1) of 6.00 to 7.15 and a pIC50 (HCV NS5B; Table 1, read-out: IC50*) of 6.00 to 8.00.
With O=C(O)c1ccc2c(C3CCCCC3)c3n(c2c1)C/C(=N/O)Cc1ccccc1-3 the pEC50 (HCV replicon; Table 1) was 5.00 to 6.00 and the pIC50 (HCV NS5B; Table 1, read-out: IC50*) was 6.00 to 8.00.
COC(=O)c1ccc2c(C3CCCCC3)c3n(c2c1)CC(C(=O)N(C)NC(C)=O)=Cc1ccccc1-3 gave a pEC50 (HCV replicon; Table 1) of 5.00 to 6.00 and a pIC50 (HCV NS5B; Table 1, read-out: IC50*) of under 6.00.
CN(C)S(=O)(=O)NC(=O)c1ccc2c(C3CCCCC3)c3n(c2c1)CC(C(=O)N1C[C@@H]2C[C@H]1CO2)=Cc1ccccc1-3 showed a pEC50 (HCV replicon; Table 1) of 6.00 to 7.15 and a pIC50 (HCV NS5B; Table 1, read-out: IC50*) of 6.00 to 8.00.
COc1ccc2c(c1)CC(C(=O)NCc1cn(C)cn1)Cn1c-2c(C2CCCCC2)c2ccc(C(=O)NS(=O)(=O)N(C)C)cc21 (stereo not drawn) gave a pEC50 (HCV replicon; Table 1a) of 6.00 to 7.52 and a pIC50 (HCV NS5B; Table 1a, read-out: IC50*) of 6.00 to 8.00.
CN(C(=O)C1=Cc2ccccc2-c2c(C3CCCCC3)c3ccc(C(=O)NS(=O)(=O)N(C)C)cc3n2C1)C1CCS(=O)(=O)C1 (stereo not drawn) showed a pEC50 (HCV replicon; Table 1) of 6.00 to 7.15 and a pIC50 (HCV NS5B; Table 1, read-out: IC50*) of 6.00 to 8.00.
With CN(C)S(=O)(=O)NC(=O)c1ccc2c(C3CCCCC3)c3n(c2c1)CC(C(=O)N1CCN(C(=O)C2COc4ccccc4O2)CC1)=Cc1ccccc1-3 (stereo not drawn) the pEC50 (HCV replicon; Table 1) was 6.00 to 7.15 and the pIC50 (HCV NS5B; Table 1, read-out: IC50*) was 6.00 to 8.00.
In the case of O=C(O)c1ccc2c(C3CCCCC3)c3n(c2c1)CC(C(=O)N1CC[C@@H](F)C1)=Cc1ccccc1-3, the pEC50 (HCV replicon; Table 1) was 6.00 to 7.15 and the pIC50 (HCV NS5B; Table 1, read-out: IC50*) was 6.00 to 8.00.
Compound COc1ccc2c(c1)C=C(C(=O)N1CCOC(CO)C1)Cn1c-2c(C2CCCCC2)c2ccc(C(=O)NS(=O)(=O)N(C)C)cc21 (stereo not drawn) has a pEC50 (HCV replicon; Table 1a) of 6.00 to 7.52 and a pIC50 (HCV NS5B; Table 1a, read-out: IC50*) of 6.00 to 8.00.
C[C@@H]1CN(C(=O)NC2Cc3ccccc3-c3c(C4CCCCC4)c4ccc(C(=O)NS(=O)(=O)N(C)C)cc4n3C2)C[C@H](C)O1 (stereo partly drawn) gave a pEC50 (HCV replicon; Table 1) of 6.00 to 7.15 and a pIC50 (HCV NS5B; Table 1, read-out: IC50*) of 6.00 to 8.00.
Work on COc1ccc2c(c1)C=C(C(=O)N1CCC(N3CCOCC3)CC1)Cn1c-2c(C2CCCCC2)c2ccc(C(=O)O)cc21 yielded a pEC50 (HCV replicon; Table 1) of 6.00 to 7.15 and a pIC50 (HCV NS5B; Table 1, read-out: IC50*) of 6.00 to 8.00.
